Experimental data as given in US20030203055A1, “Methods of treating visceral pain syndromes” (Cypress Bioscience, Inc., priority 2002, published 2003).

Experiments:
serotonin reuptake = conditions: cited from earlier work; for activity in inhibiting serotonin reuptake relative to the racemic mixture: believed, Viazzo et al. 1996, Deprez et al. 1998
NMDA receptor = conditions: Shuto et al. 1995, 1996, 1998, 2001; cited from earlier work
[1] = test system: patients with a diagnosis of Irritable Bowel Syndrome (IBS) comorbid with fibromyalgia; experiment: 12-week dose escalation monotherapy trial of milnacipran in Irritable Bowel Syndrome; format: in vivo, human; conditions: 11 IBS/fibromyalgia patients, 25 to 200 mg daily
Description: A 12-week dose escalation monotherapy trial was conducted to evaluate milnacipran's efficacy in patients with a diagnosis of Irritable Bowel Syndrome (IBS) comorbid with fibromyalgia. Patients were washed off of a variety medications-including centrally acting stimulants, antidepressants and sedative-hypnotics-over a 2-4 week period; this was followed by a two-week baseline period. After successful completion of the baseline period, patients were started on milnacipran. All patients were started at a dose of 25 mg daily, and were then escalated weekly over a 4-week period to 50, 100, and finally 200 mg daily, or until dose-limiting toxicity (DLT) was evident. In the event that DLT was evident, the patient was stabilized at the previously well-tolerated dosage, and remained on this dose for eight weeks at stable dose therapy.
The patient global impression of change (PGIC) was administered at clinic visits scheduled during the 4th, 8th, and 12th weeks of treatment. The PGIC is a highly clinically relevant instrument useful for measurement of patient improvement during controlled clinical trials. (Indeed, this instrument was the basis by which alosetron (Lotronex™) was approved by the Food and Drug Administration for the IBS indication.)
The PGIC is a conceptually simple instrument which assesses the patient's overall satisfaction with a course of drug therapy. This is done by asking the patient, “Since the start of the study, my overall status is:” with the patient choosing from the 7 choices depicted in Table 1.
For the present purposes, responses between 1-3 and 5-7 were collapsed into “Improved” and “Worse”, respectively.

[2] = in humans; Caccia 1998; cited from earlier work
norepinephrine reuptake = conditions: cited from earlier work; for activity in inhibiting norepinephrine reuptake relative to the racemic mixture: believed, Viazzo et al. 1996, Deprez et al. 1998

For `CCN(CC)C(=O)[C@@]1(c2ccccc2)C[C@H]1CN` (racemic) [milnacipran, (±)-cis-2-(aminomethyl)-N,N-diethyl-1-phenylcyclopropanecarboxamide], the IC50 (serotonin reuptake; reported, Moret et al. 1985, Palmier et al. 1989, read-out: IC50 serotonin reuptake inhibition) is given as 0.2 µM, the “antagonistic properties at the NMDA receptor” value (NMDA receptor) is given as “have antagonistic properties at the NMDA receptor” and the “trial conclusion: therapy for IBS (PGIC at 12 weeks)” value [1] is given as “safe and effective therapy for IBS”. The “most common adverse event” value ([1]; 12 weeks) was “intermittent nausea”, the “nature of milnacipran related adverse events” value ([1]; 12 weeks) was “transitory in nature” and the “reported AE of constipation” value ([1]; 12 weeks) was “one”. For the same compound, the “serious adverse events during the course of the trial” value ([1]; 12 weeks) was “no serious adverse events”, the found in urine [2] was “found in urine” and the IC50 (norepinephrine reuptake; reported, Moret et al. 1985, Palmier et al. 1989) was […].
For `CCN(CC)C(=O)C1(c2ccc(O)cc2)CC1CN` (centres unmarked) [para-hydroxylated derivative], the found in urine [2] is given as “found in urine”.
